Measurements as given in US20180008620A1, “METHODS OF TREATING NEUROLOGICAL INFLAMMATORY DISORDERS” (Mayo Foundation for Medical Education and Research, priority 2015, published 2018).

Tests used:
[1] = test system: Neurons cultured from neonatal mice; assay: Calcium imaging of spontaneous network activity (GCaMP reporter); type: cell-based, mouse; details: for correlation of spontaneous activity (Pearson correlation matrix): cytokine-stimulated cultures vs vehicle control (overall uncorrelated); for correlation of spontaneous activity (Pearson correlation matrix) / absolute number of spontaneously active cells: FIG. 7; for absolute number of spontaneously active cells: cytokine-stimulated networks, vehicle control 42 neurons
Experimental: The PBS control cultures show low amplitude calcium transients that are non-synchronous. […] Calcium levels were monitored using a fluorescent reporter transduced into the neurons with […].
The Pearson correlation matrix was calculated for all of the neurons showing spontaneous activity in the culture and heat-mapped (red=highly correlated activity; blue=uncorrelated activity). In the vehicle control neurons, there is a small cluster of synchronous activity but the overall network is uncorrelated.
Neurons are cultured in glass imaging chambers under conditions that promote formation of mature synaptic networks. Cells are infected with an AAV1.Syn.GCaMP6f calcium reporter that provides fast optical tracking of intracellular calcium levels (Akerboom et al., 2012, J. Neurosci., 32:[…]; Chen et al., 2013, Nature, 499:295-300). Calcium levels are monitored in real-time using a Zeiss 5-Live confocal microscope equipped with environmental chamber. Following collection of baseline spontaneous activity levels at low magnification, inflammatory cytokine is added at the optimal cytokine concentration determined above, and cells are followed for up to 60 minutes. Images are post-processed in Image J to measure calcium transient amplitudes and frequencies within defined cells. In some experiments, an Olympus multi-photon microscope is used at high magnification to track activity in individual synapses. In addition to spontaneous activity, calcium flux elicited by addition of glutamate to cultures that have been pretreated with inflammatory cytokines for different times (0, 1, 3, 6, 12, 24, 48, 72, or 96 hr) prior to stimulation also is measured.
Neurons were cultured from neonatal mice and stimulated with TNF alpha (100 ng/mL) or IFN gamma (500 U/mL) for 24 hr. Following transduction with an AAV-encoded GCaMPf reporter, fast calcium transients were imaged in the cells. Regions of interest outlining individual neurons were defined in each frame of movies collected over several minutes, and the fluorescence intensity of each cell was graphed through time to reveal patterns in the population response.

[2] = test system: Mouse cortical neurons; assay: IFN gamma-induced transcriptional changes, Illumina BeadArray; type: cell-based; details: IFN gamma 500 U/mL, 24 hr, vs untreated controls; mean±95% confidence intervals
Experimental: Cortical neurons were prepared from embryonic day 15 C57BL/6 mouse fetuses, following published protocols (Sauer et al., 2013, Neurobiol. Dis., 59:194-205). In preliminary experiments, after one week in vitro, the neurons were stimulated for 24 hr with IFN gamma (500 U/mL). Quadruplicate RNA samples were collected under treated and untreated conditions, and changes in gene expression were assessed using the Illumina BeadArray system. Only genes that were detected at P<0.05 on the array were considered for further analysis. Expression levels were […] and the relative level of expression following IFN gamma stimulation was compared to untreated controls. Table 1 provides mean±95% confidence intervals; the appropriate statistical test was chosen based on normality and equal variance tests.

[3] = test system: Mouse cortical neurons; assay: IFN gamma stimulation of distal axons in two-chamber device, microarray of cell body RNA; type: cell-based; details: IFN gamma added to axon chamber, RNA from cell body chamber 72 hours later
Experimental: Mouse cortical neurons were cultured in a two-chamber device that separates cell bodies from axons. Panel A is a schematic of the chambered device constructed in PDMS polymer. Panel B is a low-magnification image of the corresponding regions shown in Panel A stained with an antibody against neurofilament (an axon-specific protein). Higher magnification images are shown of the cell body chamber (Panel C), the axon grooves (Panel D), and the axon chamber (Panel E). DAPI staining indicates the complete absence of any cells in the axon chamber. Panel F is a schematic showing the experimental design: IFNgamma was added to the pure axons in the axon chamber; RNA was collected from the cell body chamber 72 hours later and analyzed by microarray to identify changes in gene expression.
Mouse cortical neurons were cultured in a two-chamber device that separates cell bodies from axons.
IFN gamma was added to the pure axons in the axon chamber, and RNA was collected from the cell body chamber 72 hours later. The RNA was analyzed by microarray to identify changes in gene expression.

[4] = TNF alpha 100 ng/mL or IFN gamma 500 U/mL for 24 hr, FIGS. 8B and 8C

TNF alpha was tested, and the “averaged calcium responses / network activity” value [1, 4] was “network bursting and highly synchronized synaptic activity”, the “correlation of spontaneous activity (Pearson correlation matrix)” value [1] was “nearly complete correlation across the entire network” and the “absolute number of spontaneously active cells” value [1] was 151 neurons. The “spontaneous calcium levels in neurons” value ([1]; stimulated for 24 hr, vs PBS control with low amplitude non-synchronous transients, FIG. 6) was “large amplitude calcium signals that were highly synchronized”.

With “IFN gamma: inflammatory cytokine interferon gamma used to stimulate neurons” the “Fold Change, gene Actb (housekeeping)” value [2] was 1.04 ± 0.06 fold, the “Fold Change, gene Aldh1a1” value [2] was 2.46 ± 0.08 fold and the “Fold Change, gene Collybistin” value [2] was 0.71 ± 0.06 fold. The “Fold Change, gene GABA A R α3” value [2] was 0.66 ± 0.10 fold, the “Fold Change, gene GABA A R β1” value [2] was 0.56 ± 0.09 fold and the “Fold Change, gene GABA A R β2” value [2] was 0.80 ± 0.09 fold. The “Fold Change, gene GABA A R β3” value [2] was 0.75 ± 0.07 fold, the “Fold Change, gene GABA A R γ2” value [2] was 0.64 ± 0.05 fold and the “Fold Change, gene GABA B R2” value [2] was 0.71 ± 0.10 fold. For the same compound, the “Fold Change, gene Gapdh” value [2] was 1.03 ± 0.06 fold, the “Fold Change, gene Gch1” value [2] was 1.59 ± 0.04 fold and the “Fold Change, gene Gephyrin” value [2] was 0.75 ± 0.05 fold. For the same compound, the “Fold Change, gene Glycine R β1” value [2] was 0.59 ± 0.07 fold, the “Fold Change, gene MOCOS” value [2] was 2.97 ± 0.21 fold and the “Fold Change, gene Xdh” value [2] was 1.47 ± 0.14 fold. The “averaged calcium responses / network activity” value [1, 4] was “network bursting and highly synchronized synaptic activity”, the “correlation of spontaneous activity (Pearson correlation matrix)” value [1] was “nearly complete correlation across the entire network” and the “absolute number of spontaneously active cells” value [1] was 137 neurons. The “GTP cyclohydrolase I expression in neuron cell bodies” value [3] was “significantly up-regulated”, the “MOCOS expression in neuron cell bodies” value [3] was “robust up-regulation” and the “aldehyde dehydrogenase expression in neuron cell bodies” value [3] was “significantly up-regulated”. For the same compound, the “gephyrin expression in neuron cell bodies” value [3] was “down-regulation”, the “glycine receptor beta subunit expression in neuron cell bodies” value [3] was “down-regulation” and the “xanthine dehydrogenase expression in neuron cell bodies” value [3] was “significantly up-regulated”. The “GABA receptor elements expression in neuron cell bodies” value ([3]; not shown) was “down-regulation” and the “gephyrin-binding scaffolds expression in neuron cell bodies” value ([3]; not shown) was “down-regulation”.

picrotoxin [reference compound] was tested, and the “averaged calcium responses / network activity” value ([1]; control cultures treated with 2.4 μM picrotoxin, FIG. 8D) was “induces network synchrony and bursting”.

For `NCCCC(=O)O` [GABA, reference compound], the “averaged calcium responses / synaptic activity” value ([1]; 27 μM GABA added to control cultures, FIG. 8E) was “completely suppresses synaptic activity”.
